The text below walks through data of ChEMBL document CHEMBL1201862, “PubChem BioAssay data set” (2004).

One test has as its target Beta-galactosidase (Escherichia coli, UniProt Q8VNN2). Description: Dose response counterscreen for EBI2 assay utilizing the enzyme, b-galactosidase. Format: functional. For orientation: The purpose of a counterscreen is to sort out artefacts and off-target activity.
The target in test [1] is Heat shock protein HSP 90-alpha (Homo sapiens, UniProt P07900). Kind of test: Luminescence-based dose response biochemical high throughput screening assay for inhibitors of the Heat Shock Protein 90 (HSP90). [Related pubchem assays: 1831 (Summary AID.), 1846 (Confirmation screen.), 1789 (Primary screen.)].
The target in the next test is T1, Protein Tat (Human immunodeficiency virus type 1 group M subtype B (isolate HXB2)(HIV-1), UniProt P04608).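 Also: tat binding to TAR RNA read out by fluorescence polarization.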
T1 sequence (P04608 whole entry): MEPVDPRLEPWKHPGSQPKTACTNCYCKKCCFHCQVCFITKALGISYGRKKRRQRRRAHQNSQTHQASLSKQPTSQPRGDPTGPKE
Format: functional.

The nature of test [2]: blockers of HIV-1 envelope-mediated cell-cell fusion – cherry-pick, dose response (AID 652057). Format: functional, cell-based.
Test [3] in a line: viability loss in CEM21 cells – cell-based, CellTiter-Glo luminescence, cherry-picked, cytotoxicity control for viral fusion inhibitor project, dose response (AID 652042).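 Also: potency for signal decrease meaning cytotoxicity.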 Format: functional. In general terms: In ATP-based viability assays light output follows the ATP content of the culture.
Test [4] is described as follows: off-target signal loss in HeLa-CEM21 co-culture – HeLa F-luc CTL cells, cherry-picked, counter-screen for HIV-1 Env fusion inhibitor project, dose response (AID 652040).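 Also: potency for signal decrease marking cytotoxic or nonspecific inhibition.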 Format: functional, cell-based.
Test [5] is described as follows: Luminescence Cell-Based Dose Confirmation to Identify Activators of 5'UTR Stem-Loop Driven Alpha-Synuclein mRNA Translation in H4 Neuroglioblastoma Cells. [Related pubchem assays: 1829 (Project Summary), 1814 (Primary HTS)]. Format: functional.
A further test relates to H4. Description: Luminescence Cell-Based Dose Response HTS to Identify Activators of 5'UTR Stem-Loop Driven Prion Protein mRNA Translation in H4 Neuroglioblastoma Cells. [Related pubchem assays: 1829 (Project Summary), 1814 (Primary HTS)]. Format: functional. The settings on record: Homo sapiens.
Test [6] in a line: Luminescence Cell-Based Dose Confirmation HTS to Identify Activators of 5'UTR Stem-Loop Driven Alpha-Synuclein mRNA Translation in H4 Neuroglioblastoma Cells. [Related pubchem assays: 1829 (Project Summary), 1814 (Primary HTS)]. Format: functional.
Test [7] can be described thus: Luminescence Cell-Based Dose Response HTS to Identify Activators of Luciferase Translation or Activity in H4 […] Cells. [Related pubchem assays: 1829 (Project Summary), 1814 (Primary HTS)]. Format: functional.
Test [8] is described as follows: Luminescence Cell-Based Dose Response to Identify Activators of Luciferase Translation or Activity in H4-C Neuroglioblastoma Cells. [Related pubchem assays: 1829 (Project Summary), 1814 (Primary HTS)]. Format: functional.
Test [9] in a line: Luminescence Cell-Based Dose Response to Identify Activators of 5'UTR Stem-Loop Driven Prion Protein mRNA Translation in H4-C Neuroglioblastoma Cells. [Related pubchem assays: 1829 (Project Summary), 1814 (Primary HTS)]. Format: functional.
Test [10] is described as follows: OVCAR8 cell viability loss – plate reader, dry powder samples, PAX8 project, dose response (AID 743197). Format: functional, cell-based. The settings on record: OVCAR-8.
Test [11] can be described thus: OVCAR-3 cell viability loss – plate reader, dry powder samples, PAX8 inhibitor project, dose response (AID 743044). Format: functional, cell-based.
Another test has as its target Paired box protein Pax-8 (Homo sapiens, UniProt Q06710). Kind of test: PAX8 transcriptional activity inhibition in RMG-I – RMG-I cells, luciferase, cherry-pick, dose response (AID 687027).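 Also: luciferase reporter driven by Pax8 target thyroperoxidase promoter measured by SteadyGlo luminescence.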 Format: functional, cell-based.
A short description of test [12]: IGROV1 cell killing – plate reader, dry powder samples, PAX8 inhibitor project, dose response (AID 743043). Format: functional, cell-based. As to conditions: IGROV-1.
The nature of test [13]: A2780 cell killing – plate reader, dry powder samples, cytotoxicity control, dose response (AID 743046). Format: functional, cell-based.
Test [14] can be described thus: blockade of melanocortin 4 receptor signaling – cell-based, plate reader, cherry pick, counter-screen for LGR2 antagonist project, dose response (AID 743444).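 Also: transfected HEK 293 cells stimulated with alpha-MSH peptide; potency of inhibitors of the alpha-MSH evoked signal.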 Format: functional.
The nature of test [15]: viability loss in HEK293 cells – cell-based, plate reader, cherry-picked samples, cytotoxicity control, dose response (AID 743446). Format: functional.
Test [16] is described as follows: blockers of HIV-1 ZM109 envelope-driven cell-cell fusion – HeLa effector, CEM target cells, luciferase, cherry-pick, dose response (AID 652058).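 Also: luciferase signal from HIV-1 Env mediated cell-cell fusion of effector and target cells.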 Format: functional, cell-based.
Test [17] is described as follows: toxicity toward HepG2 liver cells – cell-based, plate reader, cherry-pick, antagonist series, cytotoxicity control, dose response (AID 743416). Format: functional.
Test [18] can be described thus: blockers of bursicon-stimulated LGR2 cAMP reporter – cell-based, HEK293, CRE-luciferase reporter, cherry pick, set 2, dose response (AID 743343).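 Also: transfected cells were stimulated with diluted bursicon conditioned medium after compound addition.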 Format: functional. A general note: Reporter assays use an easily measured gene product as a stand-in for the process of interest.
A short description of test [19]: A549 cell cytotoxicity, dose response, cytotoxicity control, plate reader, cherry-pick, antagonist series (AID 743412). Format: functional, cell-based.
A short description of test [20]: HIV-1 AD8 envelope cell-cell fusion blockers – cherry-pick, dose response (AID 652062).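 Also: luciferase signal from cell-cell fusion driven by HIV-1 clade B AD8 Env; potency is for inhibitors of fusion seen as a drop in luminescence.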 Format: functional, cell-based.
Test [21] can be described thus: general mammalian cell viability loss – activator set, cherry-pick, cytotoxicity control for miR-122 modulator project, dose response (AID 720690).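 Also: HEK293T human cells scored for general mammalian cytotoxicity.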 Format: functional, cell-based.
The nature of test [22]: general cell-killing toxicity readout – plate reader, dry powder samples, cytotoxicity control for PAX8 inhibitor project, dose response (AID 743021). Format: functional, cell-based.

Active and inactive are the calls of the source.

Sequence of Beta-galactosidase (Q8VNN2 whole entry): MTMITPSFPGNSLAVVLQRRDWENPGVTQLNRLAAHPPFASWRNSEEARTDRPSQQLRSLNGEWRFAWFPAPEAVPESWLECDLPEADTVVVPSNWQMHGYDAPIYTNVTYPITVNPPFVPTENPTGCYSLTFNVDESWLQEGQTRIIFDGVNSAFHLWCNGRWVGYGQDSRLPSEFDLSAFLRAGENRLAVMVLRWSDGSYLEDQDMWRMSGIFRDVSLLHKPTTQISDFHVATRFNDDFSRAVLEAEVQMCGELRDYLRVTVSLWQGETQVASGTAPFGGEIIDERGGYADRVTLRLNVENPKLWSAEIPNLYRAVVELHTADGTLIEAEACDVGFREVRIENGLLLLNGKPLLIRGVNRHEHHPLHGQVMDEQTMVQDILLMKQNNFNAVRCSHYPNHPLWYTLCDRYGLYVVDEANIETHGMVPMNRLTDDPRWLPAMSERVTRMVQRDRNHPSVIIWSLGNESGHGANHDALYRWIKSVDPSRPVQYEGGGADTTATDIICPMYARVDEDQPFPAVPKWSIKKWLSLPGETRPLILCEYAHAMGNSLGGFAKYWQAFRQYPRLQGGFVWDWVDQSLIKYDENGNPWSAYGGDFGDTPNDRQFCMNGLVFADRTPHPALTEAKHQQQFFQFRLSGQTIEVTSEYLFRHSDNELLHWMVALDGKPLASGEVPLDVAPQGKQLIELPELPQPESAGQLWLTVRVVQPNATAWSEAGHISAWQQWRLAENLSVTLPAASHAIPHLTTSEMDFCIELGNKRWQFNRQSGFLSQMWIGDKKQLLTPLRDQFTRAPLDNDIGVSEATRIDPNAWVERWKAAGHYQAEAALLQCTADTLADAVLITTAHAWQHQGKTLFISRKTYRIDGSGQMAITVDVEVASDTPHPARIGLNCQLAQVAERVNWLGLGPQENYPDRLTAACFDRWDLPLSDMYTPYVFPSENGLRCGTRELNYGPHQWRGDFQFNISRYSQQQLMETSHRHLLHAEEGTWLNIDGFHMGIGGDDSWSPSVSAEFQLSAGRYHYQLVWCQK
Sequence of Paired box protein Pax-8 (Q06710 whole entry): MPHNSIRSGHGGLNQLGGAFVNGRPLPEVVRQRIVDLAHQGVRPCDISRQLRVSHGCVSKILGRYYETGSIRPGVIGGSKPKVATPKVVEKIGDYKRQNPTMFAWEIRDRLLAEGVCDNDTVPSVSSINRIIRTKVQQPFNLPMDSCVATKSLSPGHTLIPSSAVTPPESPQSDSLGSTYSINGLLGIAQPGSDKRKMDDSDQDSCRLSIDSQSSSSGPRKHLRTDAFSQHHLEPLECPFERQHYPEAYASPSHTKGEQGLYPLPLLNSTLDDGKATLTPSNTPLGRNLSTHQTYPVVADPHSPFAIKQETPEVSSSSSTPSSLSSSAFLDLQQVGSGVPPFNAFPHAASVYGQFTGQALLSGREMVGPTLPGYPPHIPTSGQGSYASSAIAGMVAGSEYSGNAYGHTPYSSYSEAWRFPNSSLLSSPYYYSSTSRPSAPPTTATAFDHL

Take `COc1ccc(N2CCN(C(=O)c3cc4c(s3)-c3ccccc3OC4)CC2)cc1`: the IC50 (usually the midpoint of a concentration-inhibition curve) at Beta-galactosidase was > 80 µM (inactive).

In the case of `CC(=O)Oc1ccccc1/C=C/c1nc2ccccc2c(=O)o1`, in test [1], the IC50 was 5.31 µM (active).

Turning to `Cc1cc(O)cc(O)c1C(=O)Cc1cnn(-c2ccccc2)c1`, the IC50 at Protein Tat was > 100 µM (inconclusive).

For `Cc1cc(C(C)(C)C)oc1C(=O)N(CC(=O)NC1CCCC1)Cc1ccc(Cl)cc1`, the values for the half-maximal activity concentration (AC50) in [2], in test [3] and in test [4] were 6.45 µM (active), 49.5 µM (active) and > 70 µM (inactive), respectively.

For `CN1CCN(C(=O)/C=C/c2ccc(Cl)cc2)CC1`, the IC50 on Beta-galactosidase was > 80 µM (inactive).

Turning to `CCN1CCN(c2ccc(S(=O)(=O)N3CCOCC3)cc2NC(=O)/C=C/c2ccc(C)cc2)CC1`, the IC50 at Beta-galactosidase was > 80 µM (inactive).

For `COc1ccc(/N=C/c2sc(O)c3ccccc23)cc1`, the EC50 – broadly, the midpoint of the concentration-response curve – in test [5] is 228 nM (active); in the test with H4, < 100 nM (active); in [6] it was < 100 nM (active); in test [7] it was < 100 nM (active); in test [8], 433 nM (active); in test [9], 315 nM (active).

Turning to `O=C(C[C@@H]1CC[C@@H]2[C@H](COC[C@@H](O)CN2C(=O)Nc2ccc(Cl)c(Cl)c2)O1)NCc1ccc(Cl)cc1`, the AC50 (in general, the concentration giving half of the maximal activity seen) in test [10] was 53.3 µM (active); in test [11] it was 33.5 µM (active); at Paired box protein Pax-8 it was 8.87 µM (active); in [12] it was 33.9 µM (active); in test [13], 60 µM (active).

Consider `CC(C)c1ccc(OCCCN2CCC(C(O)(c3ccccc3)c3ccccc3)CC2)cc1`, for which the AC50 in test [2] was 9.63 µM (active); in test [14], 5.65 µM (active); in [15] it was 14 µM (active); in [3], 7.21 µM (active); in test [16], 9.88 µM (active); in [17] it was 7.6 µM (active). Besides, the AC50 in [18] was 6.8 µM (active); in test [4] it was 7.88 µM (active); in [19], 9.56 µM (active); in test [20], 9.48 µM (active).

As for `C[C@@H]1CN([C@@H](C)CO)S(=O)(=O)c2ccc(C#Cc3ccccc3F)cc2O[C@@H]1CN(C)C(=O)c1ccc2c(c1)OCO2`, the AC50 is 26.9 µM (active) in test [21], > 70 µM (inactive) in [10], 20.5 µM (active) in test [11] and 13.2 µM (active) on Paired box protein Pax-8.

`O=C(Cc1cccnc1)N1CCCCN2[C@H](C1)[C@H](c1ccc(/C=C/c3ccccc3)cc1)[C@@H]2CO`: the AC50 in [10] is 41.2 µM (active); in test [11] it was 5.01 µM (active); on Paired box protein Pax-8 it was 4.42 µM (active); in test [22], 50.6 µM (active); in test [13], 25.1 µM (active).
